From ChEMBL document CHEMBL1201862, “PubChem BioAssay data set” (2004)
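Grown in 96-well plates, cells were treated for 48 hours with each compound at five concentrations. Insufficient inhibition: endpoint recorded as highest concentration tested. GI50 = concentration required for 50% inhibition of growth.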 Active and inactive are the calls of the source. Cut-off read from the data, not from the text of the source: active = GI50 up to about 1.1 µM and inactive = higher.

Assays:
Assay in all cases: NCI anticancer screen, dose series, 48 h
ACHN = test system: ACHN
BT-549 = test system: BT-549
CAKI-1 = test system: CAKI-1
CCRF-CEM = test system: CCRF-CEM
HCT-15 = test system: HCT-15
HL-60 = test system: HL-60
K562 = test system: K562
KM12 = test system: KM12
LOX IMVI = test system: LOX IMVI
M14 = test system: M14
NCI-H226 = test system: NCI-H226
NCI-H23 = test system: NCI-H23
OVCAR-5 = test system: OVCAR-5
PC-3 = test system: PC-3
RPMI-8226 = test system: RPMI-8226
SF-268 = test system: SF-268
SK-MEL-2 = test system: SK-MEL-2
SN12C = test system: SN12C
UO-31 = test system: UO-31

Row | Structure (SMILES) | GI50 (ACHN) | GI50 (BT-549) | GI50 (CAKI-1) | GI50 (CCRF-CEM) | GI50 (HCT-15) | GI50 (HL-60) | GI50 (K562) | GI50 (KM12) | GI50 (LOX IMVI) | GI50 (M14) | GI50 (NCI-H226) | GI50 (NCI-H23) | GI50 (OVCAR-5) | GI50 (PC-3) | GI50 (RPMI-8226) | GI50 (SF-268) | GI50 (SK-MEL-2) | GI50 (SN12C) | GI50 (UO-31)
1 | C=CCOc1cc(NC(=S)c2ccoc2C)ccc1OC | > 100 µM (inactive) | > 100 µM (inactive) | > 100 µM (inactive) | > 100 µM (inactive) | > 100 µM | > 100 µM (inactive) | > 100 µM (inactive) | > 100 µM (inactive) | > 100 µM (inactive) | > 100 µM (inactive) | > 100 µM (inactive) | > 100 µM (inactive) | > 100 µM (inactive) | > 100 µM (inactive) | > 100 µM (inactive) | > 100 µM (inactive) | > 100 µM (inactive) | > 100 µM (inactive) | > 100 µM (inactive)
2 | COC(=O)C1Cc2c(C)cccc2C1=O (centres undefined) | > 100 µM (inactive) | > 100 µM (inactive) | > 100 µM (inactive) | 41.3 µM (inactive) | > 100 µM | 29.4 µM (inactive) | 66.7 µM (inactive) | > 100 µM (inactive) | 88.9 µM (inactive) | > 100 µM (inactive) | > 100 µM (inactive) | > 100 µM (inactive) | > 100 µM (inactive) | > 100 µM (inactive) | > 100 µM (inactive) | > 100 µM (inactive) | > 100 µM (inactive) | > 100 µM (inactive) | > 100 µM (inactive)
3 | O=C1c2ccccc2-n2c1nc1ccccc1c2=O [TRYPTANTHRIN] | 2 µM (inactive) | 14.6 µM (inactive) | 12.3 µM (inactive) | 9.08 µM (inactive) | 3.6 µM | 3.71 µM (inactive) | 3.18 µM (inactive) | 6.62 µM (inactive) | 4.44 µM (inactive) | 5.65 µM (inactive) | 30.9 µM (inactive) | 9.73 µM (inactive) | 16 µM (inactive) | 0.649 µM (active) | 1.04 µM (active) | 19.9 µM (inactive) | 10.1 µM (inactive) | 12.6 µM (inactive) | 5.06 µM (inactive)
4 | CN(C)CCCNc1c2c(=O)n(C)c(=O)nc-2n(C)c2ccccc12 | 5.45 µM (inactive) | 12.7 µM (inactive) | 7.13 µM (inactive) | 3.4 µM (inactive) | 20.1 µM | 0.966 µM (active) | 4.8 µM (inactive) | 3.58 µM (inactive) | 3.87 µM (inactive) | 5.02 µM (inactive) | 5.07 µM (inactive) | 7.41 µM (inactive) | 6.1 µM (inactive) | 4.08 µM (inactive) | 7.1 µM (inactive) | 5.38 µM (inactive) | 2.52 µM (inactive) | 4.43 µM (inactive) | 4.51 µM (inactive)
5 | O=c1[nH]nc(Cc2ccc([N+](=O)[O-])cc2)[nH]1 | > 100 µM (inactive) | > 100 µM (inactive) | > 100 µM (inactive) | > 100 µM (inactive) | > 100 µM | > 100 µM (inactive) | > 100 µM (inactive) | > 100 µM (inactive) | > 100 µM (inactive) | > 100 µM (inactive) | > 100 µM (inactive) | > 100 µM (inactive) | > 100 µM (inactive) | > 100 µM (inactive) | > 100 µM (inactive) | > 100 µM (inactive) | > 100 µM (inactive) | > 100 µM (inactive) | 52.5 µM (inactive)
6 | C=C(C)[C@H]1C=C[C@@H](OC(C)=O)[C@@]2(COC(C)=O)[C@H](OC(=O)CCC)[C@H]3[C@@H](OC(C)=O)[C@@H](C)C[C@]3(O)C(=O)[C@@](C)(OC(C)=O)[C@H]12 | 34.2 µM (inactive) | 58.2 µM (inactive) | > 100 µM (inactive) | 42.4 µM (inactive) | 36.2 µM | 33.5 µM (inactive) | 31.6 µM (inactive) | 39.9 µM (inactive) | 29.5 µM (inactive) | 31.8 µM (inactive) | 40.1 µM (inactive) | 39.3 µM (inactive) | 60.4 µM (inactive) | 31.6 µM (inactive) | 30.3 µM (inactive) | 67 µM (inactive) | 87.3 µM (inactive) | 36 µM (inactive) | 33.4 µM (inactive)
7 | O=c1[nH]c(Br)nc2[nH]nnc12 | > 100 µM (inactive) | 18.1 µM (inactive) | 7.08 µM (inactive) | 7.55 µM (inactive) | > 100 µM | 5.52 µM (inactive) | 9.4 µM (inactive) | > 100 µM (inactive) | 6.89 µM (inactive) | 19.8 µM (inactive) | > 100 µM (inactive) | > 100 µM (inactive) | > 100 µM (inactive) | 69.5 µM (inactive) | 17.9 µM (inactive) | 11 µM (inactive) | 8.24 µM (inactive) | 32.4 µM (inactive) | 11.7 µM (inactive)
8 | CCOC(=O)C(O)(C(=O)OCC)c1cc(C(C)(C)C)c(O)c(C(C)(C)C)c1 | 41.3 µM (inactive) | 39.2 µM (inactive) | 41.2 µM (inactive) | 37.2 µM (inactive) | 42 µM | 25.5 µM (inactive) | 33.6 µM (inactive) | 34.8 µM (inactive) | 37.2 µM (inactive) | 39 µM (inactive) | 16.4 µM (inactive) | 43.6 µM (inactive) | 41.2 µM (inactive) | 33.7 µM (inactive) | 26.1 µM (inactive) | 40.7 µM (inactive) | 27.7 µM (inactive) | 43.4 µM (inactive) | 52.2 µM (inactive)
9 | N#CC1(C#N)C(C#N)(C#N)C1(C#N)C(N)=O | > 100 µM (inactive) | > 100 µM (inactive) | > 100 µM (inactive) | > 100 µM (inactive) | > 100 µM | > 100 µM (inactive) | > 100 µM (inactive) | > 100 µM (inactive) | > 100 µM (inactive) | > 100 µM (inactive) | > 100 µM (inactive) | > 100 µM (inactive) | > 100 µM (inactive) | > 100 µM (inactive) | > 100 µM (inactive) | > 100 µM (inactive) | > 100 µM (inactive) | > 100 µM (inactive) | > 100 µM (inactive)
10 | CCCCCC(O)[C@H]1C(=O)C[C@@H](O[Si](C)(C)C(C)(C)C)[C@@H]1/C=C/CCOCc1ccccc1 (some centres undefined) | 13.5 µM (inactive) | 8.07 µM (inactive) | 8.47 µM (inactive) | > 55.5 µM (inactive) | 10.6 µM | 2.35 µM (inactive) | > 36.5 µM (inactive) | 5.41 µM (inactive) | 10.9 µM (inactive) | 12.6 µM (inactive) | 14 µM (inactive) | 16.2 µM (inactive) | 17.9 µM (inactive) | 12.1 µM (inactive) | 17 µM (inactive) | 16.3 µM (inactive) | 15.5 µM (inactive) | 19.1 µM (inactive) | 14.5 µM (inactive)
11 | CC(C)=CCC[C@@H](C)[C@H]1CC[C@@]2(C)[C@@H]3CC[C@H]4C(C)(C)[C@@H](O)CC[C@@]45C[C@@]35CC[C@]12C [CYCLOARTENOL] | 31.5 µM (inactive) | 21.1 µM (inactive) | 59.6 µM (inactive) | 23 µM (inactive) | > 100 µM | 33.7 µM (inactive) | 26 µM (inactive) | > 56.8 µM (inactive) | 21 µM (inactive) | 41 µM (inactive) | 26.5 µM (inactive) | 22.7 µM (inactive) | > 54.2 µM (inactive) | > 71.8 µM (inactive) | 45 µM (inactive) | 27.7 µM (inactive) | 27.2 µM (inactive) | 20 µM (inactive) | > 40.7 µM (inactive)
